Substitutions are numbered along the chain they refer to. Names and notes keep the numbering of the source.
Experiments:
[1] = molecular target: T1, B. subtilis ArsC (Bs_ArsC), reduced state re-ArsC (Bacillus subtilis, UniProt P45947); assay: isothermal titration calorimetry; format: binding
T1 construct: full-length, 139 residues; recombinant, prepared as previously reported; reduced state (C10, C82, C89 free thiols)
T1 sequence (P45947 1-139): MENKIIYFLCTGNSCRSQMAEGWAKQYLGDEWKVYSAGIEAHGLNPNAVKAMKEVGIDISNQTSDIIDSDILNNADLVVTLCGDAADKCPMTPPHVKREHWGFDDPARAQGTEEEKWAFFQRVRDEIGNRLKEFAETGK

[2] = molecular target: T2, B. subtilis arsenate reductase ArsC_C10SC15AC82S mutant (ArsC in the Trx-complexed state) (B. subtilis, UniProt P45947 1-139, C10S | C15A | C82S, C89 forms an intermolecular disulfide bond with Trx (C89^ArsC-C29^Trx); 15N-labeled in one sample, unlabeled in the other); assay: preparation of a mixed-disulfide complex (DTNB incubation), studied by NMR (15N CPMG RD, CEST); Trx_C32S and ArsC_C10SC15AC82S linked by an intermolecular disulfide with the 5,5-dithiobis(2-nitrobenzoic acid) incubation protocol; NMR samples in 20 mM Tris-HCl (pH 6.85), 40 mM KCl, 20 mM urea, 20 mM Na2SO4; 25 °C; details: both partners purified
T2 construct: Thioredoxin-coupled arsenate reductase ArsC, Bacillus subtilis; triple mutant C10S/C15A/C82S used to trap the mixed-disulfide complex; also called c-ArsC; source: purity greater than 95% by SDS-PAGE
T2 sequence: T1 sequence (P45947 1-139) with C10S, C15A, C82S

`O=S(=O)(O)O` [sulfate] showed a Kd [1] of 700 µM.

B1: B. subtilis thioredoxin Trx_C32S mutant (Trx in the ArsC-complexed state) (enzyme)
chain: MAIVKATDQSFSAETSEGVVLADFWAPWCGPSKMIAPVLEELDQEMGDKLKIVKIDVDENQETAGKYGVMSIPTLLVLKDGEVVETSVGFKPKEALQELVNKHL
modifications: C29 in the mixed disulfide with ArsC C89 (C89^ArsC-C29^Trx); 15N-labeled in one sample, unlabeled in the other
notes: Thioredoxin (Trx), Bacillus subtilis; C32S mutant used to trap the mixed-disulfide complex; also called c-Trx; source: purity greater than 95% by SDS-PAGE
B1: binds [2].

Reference: paper PMC6193951, “Intra- and inter-protein couplings of backbone motions underlie protein thiol-disulfide exchange cascade” (Scientific Reports, 2018)
